Consider seven compounds from patent US9278996B2, “Dolastatin-10 derivative, method of producing the same and anticancer drug composition containing the same” (CELLTRION, INC., priority 2012, dated 2016).

SMILES strings stand for the structures.

In the assay the test system is breast cancer (BT-474). As to the kind of experiment: Anticancer activity assay (WST-8 cell growth), BT-474. In kind it is cell-based. Particulars: Homo sapiens, BT-474, 96 h, read-out: IC50 (nM) BT-474. How it is done: The compounds of the present invention were assayed for inhibitory activity against 7 cancer cell lines as breast cancer (BT-474), human epithelial cancer (A-431), non-small cell lung cancer (NCI-H460), colon cancer (HT-29), colon cancer (SW-620), breast cancer (MDA-MB-231) and breast cancer (MCF-7).
Briefly, a suspension of each cancer cell line was serially diluted, and plated at a density of 2˜3×10^3 cells/well into 96-well microplates, followed by incubation at 37° C. for 4 day in a 5% CO2 atmosphere. Cell growth in a monolayer was measured using WST-8 reagemt (Dojindo, Japan).
IC50 values of the compounds against the cancer cell lines were calculated as compound concentrations at which the cells were grown by 50% OD of the control.
Background: Formazan colour is commonly taken as a measure of viable cells.
In the case of `CC[C@H](C)[C@@H]([C@@H](CC(=O)N1C[C@H](OC)C[C@H]1[C@H](OC)[C@@H](C)C(=O)N[C@H](C)C(N)c1ccccc1)OC)N(C)C(=O)[C@@H](NC(=O)[C@H](C(C)C)N(C)C)C(C)C` (mixture of isomers) [Compound I-36, (2S)—N-((3R,4S)-1-((2S)-2-((1R,2R)-3-(((2R)-1-amino-1-phenylpropan-2-yl)amino)-1-methoxy-2-methyl-3-oxopropyl)-4-methoxypyrrolidin-1-yl)-3-methoxy-5-methyl-1-oxoheptan-4-yl)-2-((S)-2-(dimethylamino)-3-methylbutaneamido)-N,3-dimethylbutanamide], the half-inhibitory concentration (IC50) amounted to 0.51 nM.
Turning to `CC[C@H](C)[C@@H]([C@@H](CC(=O)N1C[C@H](OC)C[C@H]1[C@H](OC)[C@@H](C)C(=O)N[C@@H](C)C(N)c1ccccc1)OC)N(C)C(=O)[C@@H](NC(=O)[C@H](C(C)C)N(C)C)C(C)C` (mixture of isomers) [Compound I-37, (2S)—N-((3R,4S)-1-((2S,4R)-2-((1R,2R)-3-(((2S)-1-amino-1-phenylpropan-2-yl)amino)-1-methoxy-2-methyl-3-oxopropyl)-4-methoxypyrrolidin-1-yl)-3-methoxy-5-methyl-1-oxoheptan-4-yl)-2-((S)-2-(dimethylamino)-3-methylbutaneamido)-N,3-dimethylbutanamide], the concentration for half-maximal inhibition (IC50) is 2.82 nM.
Take `CC[C@H](C)[C@@H]([C@@H](CC(=O)N1C[C@H](OC)C[C@H]1[C@H](OC)[C@@H](C)C(=O)N[C@H](C)C(=O)c1ccccc1)OC)N(C)C(=O)[C@@H](NC(=O)[C@@H](NC)C(C)C)C(C)C` (stereo in doubt) [Compound I-6, (2 S)—N-((3R,4S)-3-methoxy-1-((2R,4R)-4-methoxy-2-((1R,2R)-1-methoxy-2-methyl-3-oxo-3-(((R)-1-oxo-1-phenylpropan-2-yl)amino)propyl)pyrrolidin-1-yl)-5-methyl-1-oxoheptan-4-yl)-N,3-dimethyl-2-((S)-3-methyl-2-(methylamino)butaneamido)butanamide]: the IC50 was 0.32 nM.
Consider `CC[C@H](C)[C@@H]([C@@H](CC(=O)N1C[C@H](OC)C[C@@H]1[C@H](OC)[C@@H](C)C(=O)NCCc1c(F)cccc1F)OC)N(C)C(=O)[C@@H](NC(=O)[C@@H](NC)C(C)C)C(C)C` [Compound I-1, (S)—N-((3R,4S,5S)-1-((2R,4R)-2-((1R,2R)-3-((2,6-difluorophenethyl)amino)-1-methoxy-2-methyl-3-oxopropyl)-4-methoxypyrrolidin-1-yl)-3-methoxy-5-methyl-1-oxoheptan-4-yl)-N,3-dimethyl-2-((S)-3-methyl-2-(methylamino)butaneamido)butanamide], for which the IC50 worked out at 0.12 nM.
The same measure for `CC[C@H](C)[C@@H]([C@@H](CC(=O)N1C[C@H](OC)CC1[C@H](OC)[C@@H](C)C(=O)NCCc1cccc(F)c1)OC)N(C)C(=O)[C@@H](NC(=O)[C@@H](NC)C(C)C)C(C)C` (stereo partly shown) [Compound I-2]: 0.7 nM.
The same measure for `CC[C@H](C)[C@@H]([C@@H](CC(=O)N1C[C@H](OC)C[C@H]1[C@H](OC)[C@@H](C)C(=O)N[C@@H](C)C(=O)c1ccccc1)OC)N(C)C(=O)[C@@H](NC(=O)[C@@H](NC)C(C)C)C(C)C` [Compound I-7, (2 S)—N-((3R,4S)-3-methoxy-1-((2S,4R)-4-methoxy-2-((1R,2R)-1-methoxy-2-methyl-3-oxo-3-(((S)-1-oxo-1-phenylpropan-2-yl)amino)propyl)pyrrolidin-1-yl)-5-methyl-1-oxoheptan-4-yl)-N,3-dimethyl-2-((S)-3-methyl-2-(methylamino)butaneamido)butanamide]: 0.62 nM.
As to `CC[C@H](C)[C@@H]([C@@H](CC(=O)N1C[C@@H](OC)C[C@@H]1[C@H](OC)[C@@H](C)C(=O)NCCc1ccccc1)OC)N(C)C(=O)[C@@H](NC(=O)[C@H](C(C)C)N(C)C)C(C)C` [Compound I-10, (S)-2-((S)-2-(dimethylamino)-3-methylbutaneamido)-N-((3R,4S,5S)-3-methoxy-1-((2R,4S)-4-methoxy-2-((1R,2R)-1-methoxy-2-methyl-3-oxo-3-(phenethylamino)propyl)pyrrolidin-1-yl)-5-methyl-1-oxoheptan-4-yl)-N,3-dimethylbutanamide], the 50% inhibitory concentration (IC50) worked out at 0.24 nM.

As a reminder, the IC50 is the point on the concentration scale where inhibition reaches its midpoint.
